Assay results from ChEMBL document CHEMBL1131740, “N-substituted 4-(5-indolyl)benzoic acids. Synthesis and evaluation of steroid 5alpha-reductase type I and II inhibitory activity” (Bioorg Med Chem Lett, 1999).
Calls of active or inactive are those of the source. No cut-off for these calls is given here.

Legend:
[1] = biological target: T1, 3-oxo-5-alpha-steroid 4-dehydrogenase 1 (Homo sapiens, UniProt P18405); experiment: Inhibitory concentration against human Steroid 5-alpha-reductase type I in DU 145 cell culture using 3H androstenedione 5 nM as substrate; assay type: cell-based
T1 sequence (P18405 whole entry): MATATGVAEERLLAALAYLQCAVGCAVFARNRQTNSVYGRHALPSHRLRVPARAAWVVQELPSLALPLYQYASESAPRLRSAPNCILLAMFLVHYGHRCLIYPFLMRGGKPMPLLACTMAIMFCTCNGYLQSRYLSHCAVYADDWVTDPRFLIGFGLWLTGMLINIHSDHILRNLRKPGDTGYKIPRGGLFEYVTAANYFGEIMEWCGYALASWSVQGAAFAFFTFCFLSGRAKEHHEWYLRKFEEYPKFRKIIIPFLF

[2] = biological target: T2, 3-oxo-5-alpha-steroid 4-dehydrogenase 2 (Homo sapiens) (UniProt P31213); experiment: Inhibition against human Steroid 5-alpha-reductase type 2 at 10 uM concentration using 18213 3H testosterone 210 nM as substrate
T2 sequence (whole entry): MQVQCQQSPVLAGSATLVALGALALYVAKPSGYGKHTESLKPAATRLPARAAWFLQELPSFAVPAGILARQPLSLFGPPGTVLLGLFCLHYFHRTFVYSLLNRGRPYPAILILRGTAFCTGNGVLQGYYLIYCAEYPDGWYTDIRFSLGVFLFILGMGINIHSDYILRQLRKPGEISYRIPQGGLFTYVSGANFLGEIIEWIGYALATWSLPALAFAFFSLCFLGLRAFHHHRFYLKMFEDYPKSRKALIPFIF

[3] = biological target: T3, 3-oxo-5-alpha-steroid 4-dehydrogenase 1 (Homo sapiens) (UniProt P18405); experiment: (§1) Inhibition against human Steroid 5-alpha-reductase type I in DU 145 cell culture at 10 uM concentration using 3H androstenedione 5 nM as substrate; assay type: cell-based
T3 sequence (whole entry): T1 sequence (P18405 whole entry)

[4] = biological target: T4, 3-oxo-5-alpha-steroid 4-dehydrogenase 1 (Rattus norvegicus) (UniProt P24008); experiment: Inhibition against rat Steroid 5-alpha-reductase type I at 10 uM concentration using 18213 3H testosterone 210 nM as substrate
T4 sequence (whole entry): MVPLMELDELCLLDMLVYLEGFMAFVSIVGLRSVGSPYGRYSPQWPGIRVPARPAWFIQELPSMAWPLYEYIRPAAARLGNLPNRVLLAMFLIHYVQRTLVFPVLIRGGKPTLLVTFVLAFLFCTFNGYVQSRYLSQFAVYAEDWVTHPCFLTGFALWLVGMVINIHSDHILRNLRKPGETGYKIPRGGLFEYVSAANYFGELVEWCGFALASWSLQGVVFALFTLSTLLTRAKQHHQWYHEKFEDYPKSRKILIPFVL

[5] = biological target: T5, 3-oxo-5-alpha-steroid 4-dehydrogenase 2 (Homo sapiens, UniProt P31213); experiment: Inhibitory activity against human 5-alpha-reductase type 2 using 18213 3H testosterone 210 nM as substrate
T5 sequence (P31213 whole entry): T2 sequence (whole entry)

[6] = biological target: T2, 3-oxo-5-alpha-steroid 4-dehydrogenase 2 (Homo sapiens); experiment: Inhibition against human 5-alpha-reductase type 2 at 10 uM concentration using 18213 3H testosterone 210 nM as substrate
[7] = biological target: T3, 3-oxo-5-alpha-steroid 4-dehydrogenase 1 (Homo sapiens); experiment: as §1
[8] = biological target: T5, 3-oxo-5-alpha-steroid 4-dehydrogenase 2; experiment: Inhibitory activity against human Steroid 5-alpha-reductase type 2 using 18213 3H testosterone 210 nM as substrate
[9] = biological target: T6, 3-oxo-5-alpha-steroid 4-dehydrogenase 1 (Rattus norvegicus, UniProt P24008); experiment: Inhibitory activity against rat Steroid 5-alpha-reductase type I using 18213 3H testosterone 210 nM as substrate
T6 sequence (P24008 whole entry): T4 sequence (whole entry)

[10] = biological target: T2, 3-oxo-5-alpha-steroid 4-dehydrogenase 2 (Homo sapiens); experiment: Percentage inhibition against human Steroid 5-alpha-reductase type 2 at 10 uM concentration using 18213 3H testosterone 210 nM as substrate
[11] = biological target: T4, 3-oxo-5-alpha-steroid 4-dehydrogenase 1 (Rattus norvegicus); experiment: Inhibition against rat Steroid 5-alpha-reductase type I at 10 uM concentration using 18213 3H testosterone 210 nM as substrate; No inhibition
[12] = biological target: T3, 3-oxo-5-alpha-steroid 4-dehydrogenase 1 (Homo sapiens); experiment: Inhibition against human 5-alpha-reductase type 1 Steroid 5-alpha-reductase type I culture at 10 uM concentration using 3H androstenedione 5 nM as substrate
[13] = biological target: T6, 3-oxo-5-alpha-steroid 4-dehydrogenase 1; experiment: Inhibition against rat Steroid 5-alpha-reductase type I at 10 uM concentration using 18213 3H testosterone 210 nM as substrate: No inhibition

Compound | IC50 [1] [µM] | inhibition [2] [%] | inhibition [3] [%] | inhibition [4] [%] | other results
CCCC(CCC)n1ccc2cc(-c3ccc(C(=O)O)cc3)ccc21 | 3.2 | 10 | 75 | 43 | –
CCCCn1ccc2cc(-c3ccc(C(=O)O)cc3)ccc21 | – | 24 | 72 | 17 | –
O=C(O)c1ccc(-c2ccc3c(ccn3C(c3ccccc3)c3ccccc3)c2)cc1 | 2.78 | 40 | 81 | 26 | –
CC(C)(C)NC(=O)[C@H]1CC[C@H]2[C@@H]3CC=C4C=C(C(=O)O)CC[C@]4(C)[C@H]3CC[C@]12C [EPRISTERIDE] | 1.1 | – | – | – | IC50 [8]: 0.003 µM; IC50 [9]: 0.045 µM
O=C(O)c1ccc(-c2ccc3c(ccn3C3CCCCC3)c2)cc1 | – | – | – | – | inhibition [10]: 36%; inhibition [11]: inactive

More lines, main results first:

IC50 [1] [µM] | inhibition [2] [%] | inhibition [3] [%] | inhibition [4] [%] | Compound | other results
– | – | – | 12 | O=C(O)c1ccc(-c2ccc3c(ccn3Cc3ccccc3)c2)cc1 | IC50 [5]: 6.2 µM; inhibition [6]: 60%; inhibition [7]: 67%
2.1 | – | – | – | O=C(O)c1ccc(-c2ccc3c(ccn3CC3CCCCC3)c2)cc1 | inhibition [10]: 50%; inhibition [12]: 81%; IC50 [13]: Not Active
